# Measurements from PubChem BioAssay (NCI).
#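 48-hour exposure; five concentrations; linearly interpolated endpoints. Definition used: TGI = concentration required for complete inhibition of growth.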 *1 amine or outer side, *2 acyl side, *3 side chain or, on linkers, in order; H or OH if unused. Where a SMILES comes first, the peptide text is derived from it. [ ]: non-standard residue; d: D form. The star is where a group is joined. X41 = CCC(=O)CC1CC(C)CC(C(=O)[*:2])N1[*:1]; X40 = CCCCCCCCC(C)C(=O)*; Aib = CC(C)(N)C(=O)O; X42 = CC(CN(C)CCO)N*
# Columns and labels:
# Experiment in all cases: NCI-60 cell line screen, 48 h
# SF-295 CNS = system: SF-295 CNS
# SF-268 CNS = system: SF-268 CNS
# UACC-257 melanoma = system: UACC-257 melanoma
# CCRF-CEM leukemia = system: CCRF-CEM leukemia
# SN12C renal = system: SN12C renal
# MCF7 breast = system: MCF7 breast
# UACC-62 melanoma = system: UACC-62 melanoma
# KM12 colon = system: KM12 colon
# IGROV1 ovarian = system: IGROV1 ovarian
# HL-60(TB) leukemia = system: HL-60(TB) leukemia
# SNB-75 CNS = system: SNB-75 CNS
# MALME-3M melanoma = system: MALME-3M melanoma
# MDA-MB-435 = system: MDA-MB-435
# RPMI-8226 leukemia = system: RPMI-8226 leukemia
# COLO 205 colon = system: COLO 205 colon
# HCT-116 colon = system: HCT-116 colon
# SW-620 colon = system: SW-620 colon
# U251 CNS = system: U251 CNS
# HCT-15 colon = system: HCT-15 colon
# T-47D breast = system: T-47D breast
# OVCAR-8 ovarian = system: OVCAR-8 ovarian
# SK-MEL-2 melanoma = system: SK-MEL-2 melanoma
# CAKI-1 renal = system: CAKI-1 renal
# MOLT-4 leukemia = system: MOLT-4 leukemia
# TK-10 renal = system: TK-10 renal
# NCI/ADR-RES ovarian = system: NCI/ADR-RES ovarian
# ACHN renal = system: ACHN renal
# OVCAR-5 ovarian = system: OVCAR-5 ovarian
# PC-3 prostate = system: PC-3 prostate
# NCI-H460 lung = system: NCI-H460 lung
# NCI-H226 lung = system: NCI-H226 lung
# SK-MEL-28 melanoma = system: SK-MEL-28 melanoma
# UO-31 renal = system: UO-31 renal
# OVCAR-3 ovarian = system: OVCAR-3 ovarian
# DU-145 prostate = system: DU-145 prostate
# HS 578T breast = system: HS 578T breast
# MDA-MB-231 breast = system: MDA-MB-231 breast
# A549 NSCLC = system: A549 NSCLC
# SK-OV-3 ovarian = system: SK-OV-3 ovarian
# HT29 colon = system: HT29 colon
# HOP-62 NSCLC = system: HOP-62 NSCLC
# SK-MEL-5 melanoma = system: SK-MEL-5 melanoma
# RXF 393 renal = system: RXF 393 renal
# HCC-2998 colon = system: HCC-2998 colon
# SNB-19 CNS = system: SNB-19 CNS
# SF-539 CNS = system: SF-539 CNS
# K-562 leukemia = system: K-562 leukemia
# NCI-H522 lung = system: NCI-H522 lung
# EKVX NSCLC = system: EKVX NSCLC
# HOP-92 NSCLC = system: HOP-92 NSCLC
# 786-0 renal = system: 786-0 renal
# OVCAR-4 ovarian = system: OVCAR-4 ovarian
# M14 melanoma = system: M14 melanoma
# LOX IMVI melanoma = system: LOX IMVI melanoma
# SR leukemia = system: SR leukemia
# NCI-H23 lung = system: NCI-H23 lung
# BT-549 breast = system: BT-549 breast
smiles,measurement,setting,value
Nc1ncc(Cc2nc3ccccc3s2)s1,TGI,SF-295 CNS,> 100 µM
same,TGI,SF-268 CNS,> 100 µM
same,TGI,UACC-257 melanoma,> 100 µM
same,TGI,CCRF-CEM leukemia,> 100 µM
same,TGI,SN12C renal,> 100 µM
same,TGI,MCF7 breast,> 100 µM
same,TGI,UACC-62 melanoma,> 100 µM
same,TGI,KM12 colon,> 100 µM
same,TGI,IGROV1 ovarian,> 100 µM
same,TGI,HL-60(TB) leukemia,> 100 µM
same,TGI,SNB-75 CNS,> 100 µM
same,TGI,MALME-3M melanoma,> 100 µM
same,TGI,MDA-MB-435,> 100 µM
same,TGI,RPMI-8226 leukemia,> 100 µM
same,TGI,COLO 205 colon,> 100 µM
same,TGI,HCT-116 colon,> 100 µM
same,TGI,SW-620 colon,> 100 µM
same,TGI,U251 CNS,> 100 µM
same,TGI,HCT-15 colon,> 100 µM
same,TGI,T-47D breast,> 100 µM
same,TGI,OVCAR-8 ovarian,> 100 µM
same,TGI,SK-MEL-2 melanoma,> 100 µM
same,TGI,CAKI-1 renal,> 100 µM
same,TGI,MOLT-4 leukemia,> 100 µM
same,TGI,TK-10 renal,> 100 µM
same,TGI,NCI/ADR-RES ovarian,> 100 µM
same,TGI,ACHN renal,> 100 µM
same,TGI,OVCAR-5 ovarian,> 100 µM
same,TGI,PC-3 prostate,> 100 µM
same,TGI,NCI-H460 lung,> 100 µM
same,TGI,NCI-H226 lung,92.8 µM
same,TGI,SK-MEL-28 melanoma,> 100 µM
same,TGI,UO-31 renal,> 100 µM
same,TGI,OVCAR-3 ovarian,> 100 µM
same,TGI,DU-145 prostate,> 100 µM
same,TGI,HS 578T breast,96.4 µM
same,TGI,MDA-MB-231 breast,> 100 µM
same,TGI,A549 NSCLC,> 100 µM
same,TGI,SK-OV-3 ovarian,> 100 µM
same,TGI,HT29 colon,> 100 µM
same,TGI,HOP-62 NSCLC,> 100 µM
same,TGI,SK-MEL-5 melanoma,> 100 µM
same,TGI,RXF 393 renal,> 100 µM
same,TGI,HCC-2998 colon,> 100 µM
same,TGI,SNB-19 CNS,> 100 µM
same,TGI,SF-539 CNS,> 100 µM
same,TGI,K-562 leukemia,> 100 µM
same,TGI,NCI-H522 lung,> 100 µM
same,TGI,EKVX NSCLC,> 100 µM
same,TGI,HOP-92 NSCLC,> 100 µM
same,TGI,786-0 renal,> 100 µM
same,TGI,OVCAR-4 ovarian,> 100 µM
same,TGI,M14 melanoma,> 100 µM
same,TGI,LOX IMVI melanoma,> 100 µM
c1ccc2c3nnc(c2c1)SCCSCCSc1nnc(c2ccccc12)SCCSCCS3,TGI,SR leukemia,> 100 µM
same,TGI,SF-295 CNS,> 100 µM
same,TGI,SF-268 CNS,> 100 µM
same,TGI,UACC-257 melanoma,> 100 µM
same,TGI,SN12C renal,> 100 µM
same,TGI,UACC-62 melanoma,> 100 µM
same,TGI,IGROV1 ovarian,> 100 µM
same,TGI,SNB-75 CNS,> 100 µM
same,TGI,MALME-3M melanoma,> 100 µM
same,TGI,COLO 205 colon,> 100 µM
same,TGI,SW-620 colon,> 100 µM
same,TGI,HCT-15 colon,> 100 µM
same,TGI,T-47D breast,> 100 µM
same,TGI,OVCAR-8 ovarian,> 100 µM
same,TGI,SK-MEL-2 melanoma,> 100 µM
same,TGI,MOLT-4 leukemia,> 100 µM
same,TGI,NCI/ADR-RES ovarian,> 100 µM
same,TGI,ACHN renal,> 100 µM
same,TGI,PC-3 prostate,> 100 µM
same,TGI,NCI-H460 lung,> 100 µM
same,TGI,OVCAR-3 ovarian,> 100 µM
same,TGI,HS 578T breast,> 100 µM
same,TGI,MDA-MB-231 breast,> 100 µM
same,TGI,A549 NSCLC,> 100 µM
same,TGI,SK-OV-3 ovarian,> 100 µM
same,TGI,HT29 colon,> 100 µM
same,TGI,HOP-62 NSCLC,> 100 µM
same,TGI,SK-MEL-5 melanoma,> 100 µM
same,TGI,NCI-H522 lung,> 100 µM
same,TGI,EKVX NSCLC,> 100 µM
same,TGI,HOP-92 NSCLC,> 100 µM
same,TGI,OVCAR-4 ovarian,> 100 µM
same,TGI,M14 melanoma,> 100 µM
same,TGI,LOX IMVI melanoma,> 100 µM
CCCCCCCCC(C)C(=O)N1CCCC1C(=O)N1C(CC(=O)CC)CC(C)CC1C(=O)NC(C)C(=O)NC(C)(C)C(=O)NC(C)(C)C(=O)NC(C(=O)NC(C)C(=O)NC(C)(C)C(=O)NC(C)(C)C(=O)NC(C)CN(C)CCO)C(C)CC (stereo not drawn) (X40-P[X41]A[Aib][Aib]IA[Aib][Aib]-X42; configuration not given here),TGI,NCI-H23 lung,1.05 µM
same,TGI,UACC-257 melanoma,2.5 µM
same,TGI,NCI-H226 lung,1.22 µM
same,TGI,BT-549 breast,6.63 µM
same,TGI,HOP-92 NSCLC,0.0435 µM
